We go through 3 compounds from publication PMC4433269 (PLoS ONE, 2015).

In series [1] the test system is P-glycoprotein. Nature of the series: Effect on the level of the P-gp substrate digoxin in rat gut sacs. Type of series: in vitro ADME. As for the experimental part:
(§1) All of the rats were starved for 24 h before the experiments. The rats were sacrificed by decapitation, and the duodenum, jejunum, ileum and colon were immediately removed and placed in a 37°C K-R solution that was oxygenated (O2/CO2, 95%:5%). After washing in order with K-R solution at room temperature, the four intestinal segments were everted on a glass rod (3 mm in diameter) with one end of each clamped before filling with fresh oxygenated K-R solution. The intestines were then sealed with braided sutures. Each sac was placed in a 10 mL test tube that contained 8 mL of oxygenated drug-containing K-R solution at 37°C. Then, 0.1 mL of serosal fluid was collected at the appropriate time points, and an equal volume of K-R solution was added to the serosal side. Finally, the solution in the sacs was collected to accurately calculate the volume, and each sac was accurately weighed before and after being cut open. The area of each sac was measured. All of the samples were analyzed using the UPLC-MS method. After analysis, the amounts (ng/mm^2) of absorbed aconitine and digoxin were calculated. Each experiment was repeated five times, and the presented data represent the means ± S.D. This study was conducted in accordance with the internationally accepted principles for laboratory animal use and care as found in the European Community guidelines.
The flow rate was 0.3 mL/min.

Series [2] has as its system everted rat gut sacs. Conditions: for ER(P2/P0): Papp with 6-gingerol / Papp alone; for ER(P1/P0): Papp with Rhizoma Zingiberis extract / Papp alone. The protocol:
as §1
(§2) The analytical UPLC-MS system consisted of an Acquity Ultra Performance LC with a Xevo TQ mass spectrometer as the detector, and it was equipped with an electrospray source in the positive ion mode (Waters Co., USA). Separation was performed on a BEH Extend-C18 column (2.1*50 mm, 1.7 μm, Agilent Co., USA). The mobile phase was composed of methanol mixed with acetonitrile in equal volumes (A) and an aqueous solution of ammonium acetate at pH 10.5 (B). The gradient elution conditions were as follows: 0–1 min 10–43% A, 2–4.5 min 55–100% A, and 5–7 min 10% A. The flow rate was 0.3 mL/min. The column temperature was 35°C throughout the entire detection process. All of the samples were freeze-dried after being collected from the serosal side, and the residue was dissolved with 0.1 mL of the mobile phase (A) prior to injecting 5 μL of each sample into the UPLC system.
To study the effect of the Rhizoma Zingiberis extract on the concentration of aconitine in the rat gut sacs, the apparent […] coefficient (Papp) was calculated using the equation Papp = [V/(A·C0)]·dC/dt, where V represents the fluid volume in the serosal side, A represents the superficial area of the gut sac, and C0 represents the initial concentration of aconitine outside the gut sac.
The experiment described in this section was conducted under the same conditions as decribed in the “Effect of the Rhizoma Zingiberis extract on the level of aconitine in the rat gut sacs” section.

The format of series [3] is physicochemical. As to conditions: for Stability RSD%: 0 h, 24 h and 48 h; for Stability of QC samples: RSD % less than 15%. The protocol: The selectivity was examined by detecting blank K-R nutrient solutions, which were useful only if no peaks appeared at the retention times of aconitine and digoxin. The inter-day and intra-day accuracies were evaluated by calculating the percent relative standard deviation (RSD %) of the concentration of the quality control (QC) samples on the same day or over three days. The matrix effect was determined by comparing the concentrations of samples with standard solution added into a blank K-R solution after extraction with QC samples. The extraction recovery was calculated by comparing the concentration of normally extracted samples with that of the QC samples. The stability was evaluated by calculating the RSD % of the concentration of the quality control (QC) samples at 0 h, 24 h and 48 h. The accuracy, matrix effect, extraction recovery and stability were all replicated by five QC samples at three levels. The LOD and LLOQ were the concentrations of QC samples with peak signal-to-noise ratios (S/N) of at least 3 and 10, respectively.

Series [4] deals with P-glycoprotein. As to conditions: deduced from verapamil effect in rat gut sacs. The protocol: as §1
Series [5] relates to everted rat gut sacs. In kind it is in vitro ADME. Conditions: 120 min. As for the experimental part:
as §1, §2
The intestinal kinetic absorptive behavior of aconitine was investigated in the gut sac model cultured in K-R nutrient solution for 120 min. The accumulative absorbed dose (Q) of aconitine was calculated for use in zero-level, primary and Higuchi equation fitting. Then, the determination coefficient (R^2) of the equation was set as the evaluation criterion for the quality of the fit. […] The slope of the fitting equation represents the absorption rate constant (ka).

The test system of series [6] is P-glycoprotein. Further details: method as in earlier work. As to conditions: Caco-2 cell culture model; cited from earlier work.
The nature of series [7]: Solubility in tested solvents during sample processing. Conditions: tested solvents: methanol, ethanol, acetonitrile, distilled water, DMSO. The protocol: Because there were numerous inorganic salts that were harmful to the mass spectrometer in the everted sac samples, dechloridation was the first consideration when we developed the processing method. We applied lyophilization as the first step for prolonging the resting period of the samples to avoid the decomposition of unstable components. […] Therefore, the second step consisted of dissolving aconitine in methanol. […] The third step consisted of centrifuging, and 5 μL of the supernatant liquid was injected into the UPLC/MS.

For series [8], the system named is everted rat gut sacs. Nature of the series: Viability of the everted rat gut sacs (serosal/mucosal glucose ratio). Conditions: incubation up to 120 min; Fig 5.
Procedure: To verify the integrity and viability of the gut sacs, glucose was collected from both the serosal side and the mucosal side of the rat gut sacs at a fixed time, and glucose was detected using a Waters UPLC/MS (Waters Co., USA), which is more accurate and sensitive than a UV-Vis detector. Separation was performed on a Hypersil NH column (4.6*150 mm, 25 μm, Elite Co., China). Although only glucose was available for detection in this part, the column separation was essential because large amounts of inorganic salts were present in the K-R nutrient solution. A mobile phase composed of 80% acetonitrile (A) and 20% distilled water (B) was used for isocratic elution. The retention time for glucose was 7.37 min. The peak area ratio of glucose in the serosal side to that in the mucosal side was used to validate the viability of the everted rat gut sacs.
Where [9] appears, read: Middle concentration QC samples.

Where two headings read alike, the source gives them in different places.

In the case of `CCCCC[C@H](O)CC(=O)CCc1ccc(O)c(OC)c1` [6-gingerol], in the series with P-glycoprotein [1] (co-incubated with digoxin, every gut sac, Fig 7, Fig 9), the “Effect on digoxin content in gut sacs” value was “decreased”. For the same compound, in the series on P-glycoprotein [1] (deduced from decreased digoxin level in rat gut sacs), the “Effect on P-glycoprotein (inducer / revulsant)” value is “potential revulsant of P-gp”. Besides, the “Effect on the level (Papp) of aconitine in the rat gut sacs” value in the series with everted rat gut sacs [2] (added to high aconitine concentration, all four gut sacs) is on record as “P2 value is smaller than the P0 value in each gut sac”.

For `CCN1C[C@]2(COC)[C@H](O)C[C@H](OC)[C@@]34[C@@H]5C[C@@]6(O)[C@H](OC(=O)c7ccccc7)[C@@H]5[C@@](OC(C)=O)([C@@H]([C@H](OC)[C@H]23)[C@@H]14)[C@@H](O)[C@@H]6OC` [aconitine], the “Stability RSD%” value in series [3] (High concentration QC samples) stood at 10.04%; in series [3] (Low concentration QC samples), 2.448%; in series [3] (setting [9]), 11.72%. The “Stability of QC samples” value in series [3] is “stable for 48 h”. Moreover, the P-glycoprotein substrate status result in the series with P-glycoprotein [4] is listed as “potential substrate of P-glycoprotein”. In addition, the “Fitting equation (zero-level; slope = absorption rate constant ka)” value in the series on everted rat gut sacs [5] (colon, aconitine 75 ng/mL) was “Q = 0.01937t”; in the series with everted rat gut sacs [5] (colon, aconitine 750 ng/mL) it was “Q = 0.1302t”; with everted rat gut sacs [5] (colon, aconitine 7500 ng/mL), “Q = 2.000t”; with everted rat gut sacs [5] (duodenum, aconitine 75 ng/mL), “Q = 0.02546t”; with everted rat gut sacs [5] (duodenum, aconitine 750 ng/mL) it was “Q = 0.05406t”; in the series on everted rat gut sacs [5] (duodenum, aconitine 7500 ng/mL), “Q = 3.528t”. The “Fitting equation (zero-level; slope = absorption rate constant ka)” value is given as “Q = 0.01294t” with everted rat gut sacs [5] (ileum, aconitine 75 ng/mL); “Q = 0.2906t” in the series on everted rat gut sacs [5] (ileum, aconitine 750 ng/mL); “Q = 2.529t” in the series on everted rat gut sacs [5] (ileum, aconitine 7500 ng/mL); “Q = 0.02977t” with everted rat gut sacs [5] (jejunum, aconitine 75 ng/mL); “Q = 0.2028t” with everted rat gut sacs [5] (jejunum, aconitine 750 ng/mL); “Q = 3.2531t” with everted rat gut sacs [5] (jejunum, aconitine 7500 ng/mL). Further, the “P-glycoprotein substrate / inhibitor status” value in the series on P-glycoprotein [6] was “both a substrate and an inhibitor of P-glycoprotein”. In addition, the Solubility in solvents result in series [7] is recorded as “able to be dissolved in methanol”. Also, the “Toxicity to gut sac tissue (glucose serosal/mucosal ratio)” value with everted rat gut sacs [8] is “did not induce toxicity in the gut sac tissue”. Besides, the “ER(P2/P0)” value in the series on everted rat gut sacs [2] (colon) is 0.4363; with everted rat gut sacs [2] (duodenum), 0.3602; in the series with everted rat gut sacs [2] (ileum), 0.3464; in the series with everted rat gut sacs [2] (jejunum), 0.3979. The “ER(P1/P0)” value was 0.6695 in the series on everted rat gut sacs [2] (colon), 0.2703 with everted rat gut sacs [2] (duodenum), 0.3615 in the series with everted rat gut sacs [2] (ileum) and 0.3942 in the series with everted rat gut sacs [2] (jejunum).

Consider `C[C@H]1O[C@@H](O[C@H]2[C@@H](O)C[C@H](O[C@H]3[C@@H](O)C[C@H](O[C@H]4CC[C@@]5(C)[C@H](CC[C@@H]6[C@@H]5C[C@@H](O)[C@]5(C)[C@@H](C7=CC(=O)OC7)CC[C@]65O)C4)O[C@@H]3C)O[C@@H]2C)C[C@H](O)[C@@H]1O` [digoxin, reference compound], for which the results for the “Stability RSD%” value in series [3] (High concentration QC samples), in series [3] (Low concentration QC samples) and in series [3] (setting [9]) were 1.336%, 2.036% and 4.913%, respectively. In addition, the “Stability of QC samples” value in series [3] is “stable for 48 h”. The Solubility in solvents result in series [7] was “only could be dissolved in dimethyl sulfoxide (DMSO) among the tested solvents”.
